Drawing on ChEMBL document CHEMBL2021794, “Synthesis, σ₁, σ₂-receptors binding affinity and antiproliferative action of new C1-substituted adamantanes” (Bioorg Med Chem, 2012), this text covers Activity for one compound.

Molecules are shown by their SMILES. The source made the active and inactive calls. The calls are words filed in the database; no cut-off is given here.

Series [1] relates to PC-3. Put plainly: Induction of apoptosis in human PC3 cells assessed as healthy cells at 15 uM after 24 hrs by Annexin V/7-AAD staining based flow cytometry (reference value: 92%). It counts as functional. In general terms: A flow cytometer gives signals particle by particle.
The subject of series [2] is BXPC-3. In words: Induction of apoptosis in human BxPC3 cells assessed as total apoptotic death cells at 15 uM after 24 hrs by Annexin V/7-AAD staining based flow cytometry (reference value: 20%). It counts as functional.
In series [3] the test system is IGROV-1. In words: Induction of apoptosis in human IGROV1 cells assessed as healthy cells at 5 uM after 24 hrs by Annexin V/7-AAD staining based flow cytometry (reference value: 86%). It counts as functional.
The subject of series [4] is Mus musculus. Put plainly: Toxicity in CD1 mouse assessed as mortality at 40 mg/kg, ip after 3 to 4 weeks chronic treatment. Conditions: in vivo. It counts as organism-based. Also noted: dose 40 mg/kg, route intraperitoneal.
For series [5], the system named is IGROV-1. Put plainly: Cytotoxicity against human IGROV1 cells after 48 hrs by trypan blue assay. The series is classed as functional, cell-based.

With `CN1CCN(c2ccc(C(c3ccccc3)C34CC5CC(CC(C5)C3)C4)cc2)CC1` (stereo not given), the Activity in series [1] is 89%; in series [2] it was 28%; in series [3], 88%; in series [4] it was “Non-toxic”. In addition, the result in series [5] was Active.
